Experiments:
Assay type in all cases: in vivo
[1] = system: Surinam grass (Brachiaria decumbens); test: Test C postemergence
Description: (§1) Seeds of plant species selected from bermudagrass (Cynodon dactylon), Surinam grass (Brachiaria decumbens), cocklebur (Xanthium strumarium), corn (Zea mays), crabgrass (Digitaria sanguinalis), woolly cupgrass (Eriochloa villosa), giant foxtail (Setaria faberii), goosegrass (Eleusine indica), johnsongrass (Sorghum halepense), kochia (Kochia scoparia), lambsquarters (Chenopodium album), morningglory (Ipomoea hederacea), yellow nutsedge (Cyperus esculentus), pigweed (Amaranthus retroflexus), common ragweed (Ambrosia elatior), soybean (Glycine max) and velvetleaf (Abutilon theophrasti) were planted and treated preemergence with test chemicals formulated in a non-phytotoxic solvent mixture which included a surfactant.
(§2) At the same time, plants selected from these crop and weed species and also winter barley (Hordeum vulgare), blackgrass (Alopecurus myosuroides), canary grass (Phalaris minor), chickweed (Stellaria media), downy brome (Bromus tectorum), green foxtail (Setaria viridis), Italian ryegrass (Lolium multiflorum), wheat (Triticum aestivum), wild oat (Avena fatua) and windgrass (Apera spica-venti) were treated with postemergence applications of some of the test chemicals formulated in the same manner. Plants ranged in height from 2 to 18 cm (1- to 4-leaf stage) for postemergence treatments. Plant species in the flooded paddy test consisted of rice (Oryza saliva), smallflower flatsedge (Cyperus difformis), duck salad (Heteranthera limosa) and barnyardgrass (Echinochloa crus-galli) grown to the 2-leaf stage for testing. Treated plants and controls were maintained in a greenhouse for 12 to 14 days, after which time all species were compared to controls and visually evaluated. Plant response ratings, summarized in Table C, are based on a scale of 0 to 100 where 0 is no effect and 100 is complete control. A dash (-) response means no test result.

[2] = system: bermudagrass (Cynodon dactylon); test: Test C postemergence
Description: as §1, §2

[3] = system: cocklebur (Xanthium strumarium); test: Test C postemergence
Description: as §1, §2

[4] = system: common ragweed (Ambrosia elatior); test: Test C postemergence
Description: as §1, §2

corn (Zea mays) = test: Test C postemergence
Description: as §1, §2

[5] = system: crabgrass (Digitaria sanguinalis); test: Test C postemergence
Description: as §1, §2

[6] = system: giant foxtail (Setaria faberii); test: Test C postemergence
Description: as §1, §2

[7] = system: goosegrass (Eleusine indica); test: Test C postemergence
Description: as §1, §2

[8] = system: johnsongrass (Sorghum halepense); test: Test C postemergence
Description: as §1, §2

kochia (Kochia scoparia) = test: Test C postemergence
Description: as §1, §2

[9] = system: lambsquarters (Chenopodium album); test: Test C postemergence
Description: as §1, §2

[10] = system: pigweed (Amaranthus retroflexus); test: Test C postemergence
Description: as §1, §2

soybean (Glycine max) = test: Test C postemergence
Description: as §1, §2

[11] = system: velvetleaf (Abutilon theophrasti); test: Test C postemergence
Description: as §1, §2

[12] = system: yellow nutsedge (Cyperus esculentus); test: Test C postemergence
Description: as §1, §2

[13] = system: common ragweed (Ambrosia elatior); test: Test C preemergence
Summary of the method: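 Formulation: non-phytotoxic solvent mix incl. surfactant. Pre: applied right after planting. Post: 1–4-leaf seedlings. Read: visual 0–100, day 12–14, greenhouse.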

Sunflower = test: Test C preemergence; settings: scale 0 to 100
[14] = system: chickweed (Stellaria media); test: Test C postemergence
Description: as §1, §2

[15] = Rate 125 g/ha, scale 0 to 100, 0 no effect, 100 complete control
[16] = Rate 250 g/ha, scale 0 to 100 (0 no effect, 100 complete control)
[17] = preemergence, Rate 250 g/ha, scale 0 to 100, 0 no effect, 100 complete control
[18] = Rate 500 g/ha, scale 0 to 100 (0 no effect, 100 complete control)

Compound: CCOc1cc(N2CCC(n3ccc(C(C)(C)C)n3)C2=O)ccc1C (centres unmarked) [Compound 106]
- Plant response rating, Surinam grass ([1]; Rate 31 g/ha, scale 0 to 100): 0
- Plant response rating, Surinam grass ([1]; Rate 62 g/ha, scale 0 to 100): 0
- Plant response rating, Surinam grass [1, 15]: 0
- Plant response rating, Surinam grass [1, 16]: 0
- Plant response rating, Bermudagrass ([2]; Rate 31 g/ha, scale 0 to 100): 0
- Plant response rating, Bermudagrass ([2]; Rate 62 g/ha, scale 0 to 100): 0
- Plant response rating, Bermudagrass [2, 15]: 0
- Plant response rating, Bermudagrass [2, 16]: 20
- Plant response rating, Cocklebur ([3]; Rate 31 g/ha, scale 0 to 100): 30
- Plant response rating, Cocklebur ([3]; Rate 62 g/ha, scale 0 to 100): 30
- Plant response rating, Cocklebur [3, 15]: 80
- Plant response rating, Cocklebur [3, 16]: 90
- Plant response rating, Ragweed, Common ([4]; Rate 62 g/ha, scale 0 to 100): 0
- Plant response rating, Ragweed, Common [4, 15]: 90
- Plant response rating, Corn (corn (Zea mays); Rate 31 g/ha, scale 0 to 100): 0
- Plant response rating, Corn (corn (Zea mays); Rate 62 g/ha, scale 0 to 100): 0
- Plant response rating, Corn (corn (Zea mays); [15]): 0
- Plant response rating, Corn (corn (Zea mays); [16]): 20
- Plant response rating, Crabgrass ([5]; Rate 31 g/ha, scale 0 to 100): 0
- Plant response rating, Crabgrass ([5]; Rate 62 g/ha, scale 0 to 100): 0
- Plant response rating, Crabgrass [5, 15]: 0
- Plant response rating, Crabgrass [5, 16]: 0
- Plant response rating, Foxtail, Giant ([6]; Rate 31 g/ha, scale 0 to 100): 0
- Plant response rating, Foxtail, Giant ([6]; Rate 62 g/ha, scale 0 to 100): 0
- Plant response rating, Foxtail, Giant [6, 15]: 0
- Plant response rating, Foxtail, Giant [6, 16]: 10
- Plant response rating, Goosegrass ([7]; Rate 31 g/ha, scale 0 to 100): 0
- Plant response rating, Goosegrass ([7]; Rate 62 g/ha, scale 0 to 100): 0
- Plant response rating, Goosegrass [7, 15]: 0
- Plant response rating, Goosegrass [7, 16]: 10
- Plant response rating, Johnsongrass ([8]; Rate 31 g/ha, scale 0 to 100): 0
- Plant response rating, Johnsongrass ([8]; Rate 62 g/ha, scale 0 to 100): 0
- Plant response rating, Johnsongrass [8, 15]: 0
- Plant response rating, Johnsongrass [8, 16]: 0
- Plant response rating, Kochia (kochia (Kochia scoparia); Rate 31 g/ha, scale 0 to 100): 70
- Plant response rating, Kochia (kochia (Kochia scoparia); Rate 62 g/ha, scale 0 to 100): 70
- Plant response rating, Kochia (kochia (Kochia scoparia); [15]): 90
- Plant response rating, Kochia (kochia (Kochia scoparia); [16]): 100
- Plant response rating, Lambsquarters ([9]; Rate 31 g/ha, scale 0 to 100): 80
- Plant response rating, Lambsquarters ([9]; Rate 62 g/ha, scale 0 to 100): 80
- Plant response rating, Lambsquarters [9, 15]: 80
- Plant response rating, Lambsquarters [9, 16]: 100
- Plant response rating, Pigweed ([10]; Rate 31 g/ha, scale 0 to 100): 70
- Plant response rating, Pigweed ([10]; Rate 62 g/ha, scale 0 to 100): 70
- Plant response rating, Pigweed [10, 15]: 80
- Plant response rating, Pigweed [10, 16]: 80
- Plant response rating, Soybean (soybean (Glycine max); Rate 31 g/ha, scale 0 to 100): 70
- Plant response rating, Soybean (soybean (Glycine max); Rate 62 g/ha, scale 0 to 100): 70
- Plant response rating, Soybean (soybean (Glycine max); [15]): 70
- Plant response rating, Soybean (soybean (Glycine max); [16]): 80
- Plant response rating, Velvetleaf ([11]; Rate 31 g/ha, scale 0 to 100): 30
- Plant response rating, Velvetleaf ([11]; Rate 62 g/ha, scale 0 to 100): 60
- Plant response rating, Velvetleaf [11, 15]: 60
- Plant response rating, Velvetleaf [11, 16]: 70
- Plant response rating, Nutsedge ([12]; Rate 31 g/ha, scale 0 to 100): 0
- Plant response rating, Nutsedge ([12]; Rate 62 g/ha, scale 0 to 100): 0
- Plant response rating, Nutsedge [12, 15]: 0
- Plant response rating, Nutsedge [12, 16]: 0
- Plant response rating, Ragweed, Common [13, 15]: 100
- Plant response rating, Ragweed, Common ([13]; preemergence, Rate 31 g/ha, scale 0 to 100): 80
- Plant response rating, Ragweed, Common ([13]; preemergence, Rate 62 g/ha, scale 0 to 100): 100
- Plant response rating, Ragweed, Common [13, 17]: 100
- Plant response rating, Sunflower (Sunflower; Rate 31 g/ha): 70
- Plant response rating, Sunflower (Sunflower; Rate 62 g/ha): 70

Compound: CCC(C)c1ccn(C2CCN(c3ccc(C)c(OC)c3)C2=O)n1 (centres unmarked) [Compound 80]
- Plant response rating, Surinam grass ([1]; Rate 62 g/ha, scale 0 to 100): 0
- Plant response rating, Surinam grass [1, 15]: 0
- Plant response rating, Surinam grass [1, 16]: 0
- Plant response rating, Surinam grass [1, 18]: 0
- Plant response rating, Bermudagrass ([2]; Rate 62 g/ha, scale 0 to 100): 0
- Plant response rating, Bermudagrass [2, 15]: 0
- Plant response rating, Bermudagrass [2, 16]: 0
- Plant response rating, Bermudagrass [2, 18]: 20
- Plant response rating, Chickweed ([14]; Rate 62 g/ha, scale 0 to 100): 20
- Plant response rating, Chickweed [14, 15]: 20
- Plant response rating, Chickweed [14, 16]: 30
- Plant response rating, Chickweed [14, 18]: 60
- Plant response rating, Cocklebur ([3]; Rate 62 g/ha, scale 0 to 100): 20
- Plant response rating, Cocklebur [3, 15]: 30
- Plant response rating, Cocklebur [3, 16]: 30
- Plant response rating, Cocklebur [3, 18]: 40
- Plant response rating, Ragweed, Common ([4]; Rate 62 g/ha, scale 0 to 100): 0
- Plant response rating, Ragweed, Common [4, 15]: 0
- Plant response rating, Ragweed, Common [4, 16]: 50
- Plant response rating, Ragweed, Common [4, 18]: 80
- Plant response rating, Corn (corn (Zea mays); Rate 62 g/ha, scale 0 to 100): 0
- Plant response rating, Corn (corn (Zea mays); [15]): 0
- Plant response rating, Corn (corn (Zea mays); [16]): 0
- Plant response rating, Corn (corn (Zea mays); [18]): 0
- Plant response rating, Crabgrass ([5]; Rate 62 g/ha, scale 0 to 100): 0
- Plant response rating, Crabgrass [5, 15]: 0
- Plant response rating, Crabgrass [5, 16]: 0
- Plant response rating, Crabgrass [5, 18]: 30
- Plant response rating, Foxtail, Giant ([6]; Rate 62 g/ha, scale 0 to 100): 0
- Plant response rating, Foxtail, Giant [6, 15]: 0
- Plant response rating, Foxtail, Giant [6, 16]: 0
- Plant response rating, Foxtail, Giant [6, 18]: 20
- Plant response rating, Goosegrass ([7]; Rate 62 g/ha, scale 0 to 100): 0
- Plant response rating, Goosegrass [7, 15]: 0
- Plant response rating, Goosegrass [7, 16]: 0
- Plant response rating, Goosegrass [7, 18]: 0
- Plant response rating, Johnsongrass ([8]; Rate 62 g/ha, scale 0 to 100): 0
- Plant response rating, Johnsongrass [8, 15]: 0
- Plant response rating, Johnsongrass [8, 16]: 0
- Plant response rating, Johnsongrass [8, 18]: 0
- Plant response rating, Kochia (kochia (Kochia scoparia); Rate 62 g/ha, scale 0 to 100): 0
- Plant response rating, Kochia (kochia (Kochia scoparia); [15]): 0
- Plant response rating, Kochia (kochia (Kochia scoparia); [16]): 30
- Plant response rating, Kochia (kochia (Kochia scoparia); [18]): 50
- Plant response rating, Lambsquarters ([9]; Rate 62 g/ha, scale 0 to 100): 10
- Plant response rating, Lambsquarters [9, 18]: 90
- Plant response rating, Pigweed ([10]; Rate 62 g/ha, scale 0 to 100): 20
- Plant response rating, Pigweed [10, 15]: 40
- Plant response rating, Pigweed [10, 18]: 70
- Plant response rating, Soybean (soybean (Glycine max); Rate 62 g/ha, scale 0 to 100): 50
- Plant response rating, Soybean (soybean (Glycine max); [15]): 60
- Plant response rating, Soybean (soybean (Glycine max); [16]): 70
- Plant response rating, Soybean (soybean (Glycine max); [18]): 90
- Plant response rating, Velvetleaf ([11]; Rate 62 g/ha, scale 0 to 100): 20
- Plant response rating, Velvetleaf [11, 15]: 20
- Plant response rating, Velvetleaf [11, 16]: 20
- Plant response rating, Velvetleaf [11, 18]: 20
- Plant response rating, Nutsedge ([12]; Rate 62 g/ha, scale 0 to 100): 0
- Plant response rating, Nutsedge [12, 15]: 20
- Plant response rating, Nutsedge [12, 16]: 20
- Plant response rating, Nutsedge [12, 18]: 20
- Plant response rating, Ragweed, Common [13, 15]: 100
- Plant response rating (0 to 100), Ragweed, Common ([13]; preemergence, Rate 500 g/ha, visual evaluation after 12 to 14 days): 100
- Plant response rating, Ragweed, Common [13, 17]: 100

— US7138361B2, “Herbicidal heterocycles” (E. I. du Pont de Nemours and Company, priority 2000, dated 2006)
